From PMC6151521, “Characterization of the Ornithine Hydroxylation Step in Albachelin Biosynthesis” (Molecules : A Journal of Synthetic Chemistry and Natural …, 2017) come the findings set out here.

Structures are written as SMILES.

The assay has as its system T1, albachelin monooxygenase (AMO).
T1 construct: expressed in E. coli (pVP56K) as 8xHis-MBP fusion, tag removed with TEV protease; MW 49 kDa
Description: oxygen consumption (Oxygraph). The class given is biochemical, Amycolatopsis alba. As to conditions: holo-AMO, 100 mM sodium phosphate pH 7.5. An excerpt: oxygen consumption (Oxygraph) on albachelin monooxygenase (AMO)

In the case of `NCCC[C@H](N)C(=O)O` [Orn], the Michaelis constant (Km) (5 mM NADPH) turned out to be 305 ± 108 µM.
On to `NC(=O)C1=CN([C@@H]2O[C@H](COP(=O)(O)OP(=O)(O)OC[C@H]3O[C@@H](n4cnc5c(N)ncnc54)[C@H](O)[C@@H]3O)[C@@H](O)[C@H]2O)C=CC1` [NADH], for which the Km (10 mM Orn) is 320 ± 100 µM.
`NC(=O)C1=CN([C@@H]2O[C@H](COP(=O)(O)OP(=O)(O)OC[C@H]3O[C@@H](n4cnc5c(N)ncnc54)[C@H](OP(=O)(O)O)[C@@H]3O)[C@@H](O)[C@H]2O)C=CC1` [NADPH]: the Km (10 mM Orn) stood at 1400 ± 160 µM.

As a reminder, the Km is the concentration of substrate that gives half-maximal velocity.
